Data taken from patent US9593309B2, “Media for culturing, preserving, and administering regenerative cells” (InGeneron, Inc., priority 2012, dated 2017).

What was measured:
[1] = system: Ad-MSCs (canine adipose SVF cells); assay: Ad-MSC proliferation, nucleated cell counts (Syto13) of plated adipose SVF cells; type: cell-based; details: concentration not given
Method: Assays for cell proliferation, colony forming units (CFU), gene expression analyses, cell surface markers, and chondrogenic and osteogenic differentiation were performed. Cell growth and Colony Forming Units (CFU) were grown in monolayer on tissue culture grade plastic in alpha MEM, 20% FBS (v/v), pen/strep. Nucleated cell counts were performed by staining with Syto13 (Invitrogen) followed by hemacytometer counting under fluorescence microscopy. Gene expression analysis was performed by quantitative RT-PCR profiling, BioRad iQ. Flow Activated Cell Storing (FACS) analyses were performed at M.D. Anderson Cancer Center FACS Core Facilities, Houston, Tex. by GALLIOS Flow Cytometry Instruments (Beckman Coulter). […]
Media was changed at days 3 and 6. Nucleated cell counts were performed by Syto13 staining followed by hemacytometer counting under fluorescence microscopy (FIG. 1B).
Fresh canine adipose SVF cells were plated at equal nucleated cell density and grown for 7 days in culture on tissue culture plastic in the presence of complete growth media and the respective concentrations (v/v) of GAG formulation. Nucleated cell counts were performed by Syto13 staining followed by hemacytometer counting under fluorescence microscopy. […]

Sox2 = Sox2 mRNA level in cultured Ad-MSCs, normalized to β-Actin; type: cell-based, canine; details: 5% (v/v) formulation, 6 days culture, vs other GAG formulations
Method: Assays for cell proliferation, colony forming units (CFU), gene expression analyses, cell surface markers, and chondrogenic and osteogenic differentiation were performed. Cell growth and Colony Forming Units (CFU) were grown in monolayer on tissue culture grade plastic in alpha MEM, 20% FBS (v/v), pen/strep. Nucleated cell counts were performed by staining with Syto13 (Invitrogen) followed by hemacytometer counting under fluorescence microscopy. Gene expression analysis was performed by quantitative RT-PCR profiling, BioRad iQ. Flow Activated Cell Storing (FACS) analyses were performed at M.D. Anderson Cancer Center FACS Core Facilities, Houston, Tex. by GALLIOS Flow Cytometry Instruments (Beckman Coulter). For osteogenic and chondrogenic differentiation, cells were cultured in STEMPRO induction media (Invitrogen, Carlsbad, Calif.) for 14 days, fixed in 4% formalin, and stained with Alzarin red and Alcian Blue, respectively. Statistical analyses were performed by ANOVA.
Canine Ad-MSCs were grown for 6 days in culture in the presence of complete growth media and the respective 5% (v/v) GAG formulations. Magnification=100×. Sox2 levels, a marker of stem cell proliferation, were measured in total RNA samples and normalized to β-Actin mRNA. Here “GAG” represents poly-sulfated glycosaminoglycan (ADEQUAN).

Substance: hyaluronic acid [HA]
- effect on cell proliferation when added to culture media [1]: pro-mitotic, but to a lesser magnitude
- Sox2 levels (Sox2): qualitatively similar, but of lesser magnitude
